Bridge positions count the residues as written; N and C are the ends. Square brackets hold non-standard residues; d marks the D form. Peptide text beside a SMILES is read from it. * marks the point of attachment. Phe(3-CF3) = N[C@@H](Cc1cccc(C(F)(F)F)c1)C(=O)O; Ala(morpholin-4-yl) = N[C@@H](CN1CCOCC1)C(=O)O; Phe(4-COOH) = N[C@@H](Cc1ccc(C(=O)O)cc1)C(=O)O; Bip = N[C@@H](Cc1ccc(-c2ccccc2)cc1)C(=O)O; NH(CH2)14COOH = O=C(O)CCCCCCCCCCCCCCN*; Phe(3-Me) = Cc1cccc(C[C@H](N)C(=O)O)c1; NH(CH2)12COOH = O=C(O)CCCCCCCCCCCCN*; Val(3-OH) = CC(C)(O)[C@H](N)C(=O)O; 4Pal = N[C@@H](Cc1ccncc1)C(=O)O; Cha = N[C@@H](CC1CCCCC1)C(=O)O; PEG4 = NCCOCCOCCOCCOCCC(=O)O; Carboxymethyl = O=C(O)C*; Orn = NCCC[C@H](N)C(=O)O; Dab = NCC[C@H](N)C(=O)O; Nva = CCC[C@H](N)C(=O)O; AEEA = NCCOCCOCC(=O)O

Broadly, the IC50 is the concentration at which inhibition is half-maximal.

In the assay the target is T1, PD-1/PD-L1 interaction (PE-labeled human PD-L1-Ig binding to Jurkat cell line over-expressing human PD-1) (Homo sapiens, UniProt Q15116).
T1 construct: expressed in transfected cells; host or cells: Jurkat
T1 sequence (Q15116 25-288): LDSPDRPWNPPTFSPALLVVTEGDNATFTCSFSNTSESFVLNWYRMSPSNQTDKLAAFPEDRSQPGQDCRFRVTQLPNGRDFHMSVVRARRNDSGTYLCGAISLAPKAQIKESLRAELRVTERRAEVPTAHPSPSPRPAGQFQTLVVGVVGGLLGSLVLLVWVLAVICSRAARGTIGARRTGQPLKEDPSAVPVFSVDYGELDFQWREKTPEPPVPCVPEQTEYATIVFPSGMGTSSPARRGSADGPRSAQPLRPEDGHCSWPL
The assay is described as follows: Jurkat-PD-1 Cell Binding High-Content Screening Assay (CBA). Conditions: Jurkat cell line over-expressing human PD-1; PE-labeled PD-L1-Ig 20 nM final; read-out: Jurkat hPD1-PDL1 IC50. The format is cell-based. An outline of the steps: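 Jurkat cells over-expressing human PD-1 (8×10^3 per well, DMEM/10% FCS) preincubated with compound 2 h at 37° C, then PE-labeled human PD-L1-Ig (20 nM final) added for 1 h. Cells fixed with paraformaldehyde, Hoechst-stained, and bound fluorescence quantified by high-content imaging.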
For the compound `COc1ccc(C[C@@H]2NC(=O)[C@H](Cc3cccc(C)c3)NC(=O)[C@H](CC(=O)O)NC(=O)[C@H](Cc3ccc(OCC(=O)O)cc3)NC(=O)[C@H](Cc3ccncc3)NC(=O)CSC[C@@H](C(=O)N[C@@H](CCN)C(=O)NCCOCCOCC(=O)NCCOCCOCC(=O)NCCCCCCCCCCCCC(=O)O)NC(=O)[C@H](CO)NC(=O)[C@H](C(C)(C)O)NC(=O)[C@H](CC3CCCCC3)NC(=O)[C@H](CCN)NC(=O)[C@@H](CC(C)C)NC(=O)[C@H](CCCN)NC(=O)[C@H](Cc3ccc(OCC(=O)O)cc3)NC(=O)[C@H](Cc3ccc(-c4ccccc4)cc3)NC2=O)cc1` [Compound 2894] ({CH2CO}-[4Pal]Y(Carboxymethyl)D[Phe(3-Me)]Y(Me)[Bip]Y(Carboxymethyl)[Orn][dL][Dab][Cha][Val(3-OH)]SC[Dab][AEEA][AEEA]-{NH(CH2)12COOH}; thioether N-14), the IC50 came to 259 nM. Consider `Cc1cccc(C[C@@H]2NC(=O)[C@H](CC(=O)O)NC(=O)[C@H](Cc3ccc(OCC(=O)O)cc3)NC(=O)[C@H](Cc3c[nH]cn3)NC(=O)CSC[C@@H](C(=O)N[C@@H](CCN)C(=O)NCCOCCOCC(=O)NCCOCCOCC(=O)NCCCCCCCCCCCCC(=O)O)NC(=O)[C@H](CO)NC(=O)[C@H](C(C)(C)O)NC(=O)[C@H](CC3CCCCC3)NC(=O)[C@H](CCN)NC(=O)[C@@H](CC(C)C)NC(=O)[C@H](CCCN)NC(=O)[C@H](Cc3ccc(C(=O)O)cc3)NC(=O)[C@H](Cc3ccc(-c4ccccc4)cc3)NC(=O)[C@H](Cc3ccc(C(=O)O)cc3)NC2=O)c1` [Compound 2895] ({CH2CO}-HY(Carboxymethyl)D[Phe(3-Me)][Phe(4-COOH)][Bip][Phe(4-COOH)][Orn][dL][Dab][Cha][Val(3-OH)]SC[Dab][AEEA][AEEA]-{NH(CH2)12COOH}; thioether N-14), for which the IC50 was 11.4 nM.

Consider `Cc1cccc(C[C@@H]2NC(=O)[C@H](CC(=O)O)NC(=O)[C@H](Cc3ccc(OCC(=O)O)cc3)NC(=O)[C@H](CN3CCOCC3)NC(=O)CSC[C@@H](C(=O)N[C@@H](CCN)C(=O)NCCOCCOCC(=O)NCCOCCOCC(=O)NCCCCCCCCCCCCC(=O)O)NC(=O)[C@H](CO)NC(=O)[C@H](C(C)(C)O)NC(=O)[C@H](CC3CCCCC3)NC(=O)[C@H](CCN)NC(=O)[C@@H](CC(C)C)NC(=O)[C@H](CCCN)NC(=O)[C@H](Cc3ccc(OCC(=O)O)cc3)NC(=O)[C@H](Cc3ccc(-c4ccccc4)cc3)NC(=O)[C@H](Cc3ccc(OCC(=O)O)cc3)NC2=O)c1` [Compound 2896] ({CH2CO}-[Ala(morpholin-4-yl)]Y(Carboxymethyl)D[Phe(3-Me)]Y(Carboxymethyl)[Bip]Y(Carboxymethyl)[Orn][dL][Dab][Cha][Val(3-OH)]SC[Dab][AEEA][AEEA]-{NH(CH2)12COOH}; thioether N-14), for which the IC50 was found to be 4.1 nM. Under `Cc1cccc(C[C@@H]2NC(=O)[C@H](CC(=O)O)NC(=O)[C@H](Cc3ccc(OCC(=O)O)cc3)NC(=O)[C@H](CN3CCOCC3)NC(=O)CSC[C@@H](C(=O)N[C@@H](CCN)C(=O)NCCOCCOCC(=O)NCCOCCOCC(=O)NCCCCCCCCCCCCC(=O)O)NC(=O)[C@H](CO)NC(=O)[C@H](C(C)(C)O)NC(=O)[C@H](CC3CCCCC3)NC(=O)[C@H](CCN)NC(=O)[C@@H](CC(C)C)NC(=O)[C@H](CCCN)NC(=O)[C@H](Cc3ccc(C(=O)O)cc3)NC(=O)[C@H](Cc3ccc(-c4ccccc4)cc3)NC(=O)[C@H](Cc3ccc(C(=O)O)cc3)NC2=O)c1` [Compound 2897] ({CH2CO}-[Ala(morpholin-4-yl)]Y(Carboxymethyl)D[Phe(3-Me)][Phe(4-COOH)][Bip][Phe(4-COOH)][Orn][dL][Dab][Cha][Val(3-OH)]SC[Dab][AEEA][AEEA]-{NH(CH2)12COOH}; thioether N-14) stands 1.6 nM; under `Cc1cccc(C[C@@H]2NC(=O)[C@H](CC(=O)O)NC(=O)[C@H](Cc3ccc(OCC(=O)O)cc3)NC(=O)[C@H](CN3CCOCC3)NC(=O)CSC[C@@H](C(=O)N[C@@H](CCN)C(=O)NCCOCCOCC(=O)NCCOCCOCC(=O)NCCCCCCCCCCCCC(=O)O)NC(=O)[C@H](CCC(=O)O)NC(=O)[C@H](C(C)(C)O)NC(=O)[C@H](CC3CCCCC3)NC(=O)[C@H](CCN)NC(=O)[C@@H](CC(C)C)NC(=O)[C@H](CCCN)NC(=O)[C@H](Cc3ccc(C(=O)O)cc3)NC(=O)[C@H](Cc3ccc(-c4ccccc4)cc3)NC(=O)[C@H](Cc3ccc(C(=O)O)cc3)NC2=O)c1` [Compound 2898] ({CH2CO}-[Ala(morpholin-4-yl)]Y(Carboxymethyl)D[Phe(3-Me)][Phe(4-COOH)][Bip][Phe(4-COOH)][Orn][dL][Dab][Cha][Val(3-OH)]EC[Dab][AEEA][AEEA]-{NH(CH2)12COOH}; thioether N-14), 5.5 nM. Under `Cc1cccc(C[C@@H]2NC(=O)[C@H](CC(=O)O)NC(=O)[C@H](Cc3ccc(OCC(=O)O)cc3)NC(=O)[C@H](CN3CCOCC3)NC(=O)CSC[C@@H](C(=O)N[C@@H](CCN)C(=O)NCCOCCOCC(=O)NCCOCCOCC(=O)NCCCCCCCCCCCCC(=O)O)NC(=O)[C@H](CC(=O)O)NC(=O)[C@H](C(C)(C)O)NC(=O)[C@H](CC3CCCCC3)NC(=O)[C@H](CCN)NC(=O)[C@@H](CC(C)C)NC(=O)[C@H](CCCN)NC(=O)[C@H](Cc3ccc(C(=O)O)cc3)NC(=O)[C@H](Cc3ccc(-c4ccccc4)cc3)NC(=O)[C@H](Cc3ccc(C(=O)O)cc3)NC2=O)c1` [Compound 2899] ({CH2CO}-[Ala(morpholin-4-yl)]Y(Carboxymethyl)D[Phe(3-Me)][Phe(4-COOH)][Bip][Phe(4-COOH)][Orn][dL][Dab][Cha][Val(3-OH)]DC[Dab][AEEA][AEEA]-{NH(CH2)12COOH}; thioether N-14) stands 5.4 nM; under `Cc1cccc(C[C@@H]2NC(=O)[C@H](CC(=O)O)NC(=O)[C@H](Cc3ccc(C(=O)O)cc3)NC(=O)[C@H](CN3CCOCC3)NC(=O)CSC[C@@H](C(=O)N[C@@H](CCN)C(=O)NCCOCCOCC(=O)NCCOCCOCC(=O)NCCCCCCCCCCCCC(=O)O)NC(=O)[C@H](CO)NC(=O)[C@H](C(C)(C)O)NC(=O)[C@H](CC3CCCCC3)NC(=O)[C@H](CCN)NC(=O)[C@@H](CC(C)C)NC(=O)[C@H](CCCN)NC(=O)[C@H](Cc3ccc(C(=O)O)cc3)NC(=O)[C@H](Cc3ccc(-c4ccccc4)cc3)NC(=O)[C@H](Cc3ccc(C(=O)O)cc3)NC2=O)c1` [Compound 2900] ({CH2CO}-[Ala(morpholin-4-yl)][Phe(4-COOH)]D[Phe(3-Me)][Phe(4-COOH)][Bip][Phe(4-COOH)][Orn][dL][Dab][Cha][Val(3-OH)]SC[Dab][AEEA][AEEA]-{NH(CH2)12COOH}; thioether N-14), 6.2 nM. Under `CCC[C@@H]1NC(=O)CSC[C@@H](C(=O)N[C@@H](CCN)C(=O)NCCOCCOCCOCCOCCC(=O)NCCCCCCCCCCCCC(=O)O)NC(=O)[C@H](CO)NC(=O)[C@H](C(C)(C)O)NC(=O)[C@H](CC2CCCCC2)NC(=O)[C@H](CCN)NC(=O)[C@@H](CC(C)C)NC(=O)[C@H](CCCN)NC(=O)[C@H](Cc2ccc(OCC(=O)O)cc2)NC(=O)[C@H](Cc2ccc(-c3ccccc3)cc2)NC(=O)[C@H](Cc2ccc(OCC(=O)O)cc2)NC(=O)[C@H](Cc2cccc(C(F)(F)F)c2)NC(=O)[C@H](CC(=O)O)NC(=O)[C@H](Cc2ccc(C(=O)O)cc2)NC1=O` [Compound 2901] ({CH2CO}-[Nva][Phe(4-COOH)]D[Phe(3-CF3)]Y(Carboxymethyl)[Bip]Y(Carboxymethyl)[Orn][dL][Dab][Cha][Val(3-OH)]SC[Dab][PEG4]-{NH(CH2)12COOH}; thioether N-14) stands 24.1 nM. Regarding `CCC[C@@H]1NC(=O)CSC[C@@H](C(=O)N[C@@H](CCN)C(=O)NCCOCCOCCOCCOCCC(=O)NCCCCCCCCCCCCCCC(=O)O)NC(=O)[C@H](CO)NC(=O)[C@H](C(C)(C)O)NC(=O)[C@H](CC2CCCCC2)NC(=O)[C@H](CCN)NC(=O)[C@@H](CC(C)C)NC(=O)[C@H](CCCN)NC(=O)[C@H](Cc2ccc(OCC(=O)O)cc2)NC(=O)[C@H](Cc2ccc(-c3ccccc3)cc2)NC(=O)[C@H](Cc2ccc(OCC(=O)O)cc2)NC(=O)[C@H](Cc2cccc(C(F)(F)F)c2)NC(=O)[C@H](CC(=O)O)NC(=O)[C@H](Cc2ccc(C(=O)O)cc2)NC1=O` [Compound 2902] ({CH2CO}-[Nva][Phe(4-COOH)]D[Phe(3-CF3)]Y(Carboxymethyl)[Bip]Y(Carboxymethyl)[Orn][dL][Dab][Cha][Val(3-OH)]SC[Dab][PEG4]-{NH(CH2)14COOH}; thioether N-14), the IC50 turned out to be 282 nM.

Turning to `CCC[C@@H]1NC(=O)CSC[C@@H](C(=O)N[C@@H](CCN)C(=O)NCCCCCCCCCCCCC(=O)O)NC(=O)[C@H](CO)NC(=O)[C@H](C(C)(C)O)NC(=O)[C@H](CC2CCCCC2)NC(=O)[C@H](CCN)NC(=O)[C@@H](CC(C)C)NC(=O)[C@H](CCCN)NC(=O)[C@H](Cc2ccc(OCC(=O)O)cc2)NC(=O)[C@H](Cc2ccc(-c3ccccc3)cc2)NC(=O)[C@H](Cc2ccc(OCC(=O)O)cc2)NC(=O)[C@H](Cc2cccc(C(F)(F)F)c2)NC(=O)[C@H](CC(=O)O)NC(=O)[C@H](Cc2ccc(C(=O)O)cc2)NC1=O` [Compound 2903] ({CH2CO}-[Nva][Phe(4-COOH)]D[Phe(3-CF3)]Y(Carboxymethyl)[Bip]Y(Carboxymethyl)[Orn][dL][Dab][Cha][Val(3-OH)]SC[Dab]-{NH(CH2)12COOH}; thioether N-14), the IC50 amounted to 27.7 nM. In the case of `CCC[C@@H]1NC(=O)CSC[C@@H](C(=O)N[C@@H](CCN)C(=O)NCCCCCCCCCCCCCCC(=O)O)NC(=O)[C@H](CO)NC(=O)[C@H](C(C)(C)O)NC(=O)[C@H](CC2CCCCC2)NC(=O)[C@H](CCN)NC(=O)[C@@H](CC(C)C)NC(=O)[C@H](CCCN)NC(=O)[C@H](Cc2ccc(OCC(=O)O)cc2)NC(=O)[C@H](Cc2ccc(-c3ccccc3)cc2)NC(=O)[C@H](Cc2ccc(OCC(=O)O)cc2)NC(=O)[C@H](Cc2cccc(C(F)(F)F)c2)NC(=O)[C@H](CC(=O)O)NC(=O)[C@H](Cc2ccc(C(=O)O)cc2)NC1=O` [Compound 2904] ({CH2CO}-[Nva][Phe(4-COOH)]D[Phe(3-CF3)]Y(Carboxymethyl)[Bip]Y(Carboxymethyl)[Orn][dL][Dab][Cha][Val(3-OH)]SC[Dab]-{NH(CH2)14COOH}; thioether N-14), the IC50 was determined as 518 nM.

The values above are taken from patent US20260022142A1, “MACROCYCLIC IMMUNOMODULATORS” (Bristol-Myers Squibb Company, priority 2022, published 2026).
